In this assay the test system is 2G12. Kind of assay: Binding curve and KD determination of 2G12-glycopeptide interaction (radiolabeled glycopeptide, protein G magnetic bead capture, scintillation counting). As to the method: The resulting mRNAs were purified by denaturing PAGE or MEGAclear kit (Ambion), and 1 μM RNA was used in PURE system translation (reaction volume of translation varied). Typically, 25 μL of translated reaction was diluted with 100 μL of binding buffer (50 mM Tris-HCl, pH 7.8, 300 mM NaCl, 5 mM β-mercaptoethanol) and 25 μL of Ni-NTA agarose suspension (Qiagen), and tumbled at room temperature for 1 h. The resins were transferred to 0.22 μm spin-filter rinsing with 100 μL of bind buffer, and washed with 3×200 μL of bind buffer and 2×200 μL of wash buffer (50 mM Tris-HCl, pH 7.8, 5 mM β-mercaptoethanol). The bound peptides were eluted with 2×25 μL of 0.1% TFA. The eluted peptides were analyzed by MALDI-TOF MS, using α-Cyano-4-hydroxycinnamic acid matrix (Sigma), with or without desalting with ZipTip C18 resin (Millipore). For calibration of MALDI-TOF-MS, at least two of the following standards, bovine insulin, E. coli thioredoxin and/or horse apomyoglobin were used. To quantitate peptide yields, the radioactivities were measured by liquid scintillation counting. For the click reaction, the translated and purified peptides were mixed with 0.1% (v/v) Triton X-100, and then dialyzed against H2O containing 0.1% (v/v) Triton X-100 using Slide-A-Lyzer MINI Dialysis Devices, 3.5K MWCO (Thermo Scientific) overnight to desalt. After dialysis, the peptides were divided into two portions: one was glycosylated via the click reaction, while the other was saved as a non-glycosylated peptide control. […] The glycosylated peptide (<4 pmol) was incubated with 100 nM 2G12 in selection buffer (40 μL) at room temp. The solution was then tumbled 30 min with 0.12 mg of equilibrated Dynabeads Protein G to capture 2G12-glycopeptide complex. Beads were then washed with 3×40 μL of selection buffer and resuspended in 10 μL of selection buffer. The resuspended beads were heated at 70° C. for 30 min to denature 2G12 and elute glycopeptides, chilled on ice for 5 min, and tumbled at room temperature for 10 min. The magnetically isolated supernatant was recovered and the beads were rinsed with 10 μL of selection buffer.
Then, the solution was added to 0.12 mg of pre-equilibrated Dynabeads Protein G and tumbled at room temperature for 30 min. The supernatant was removed and the beads were washed with 3×40 μL of selection buffer. The radioactivities of the supernatant and wash solutions were measured by liquid scintillation counting as unbound fractions. […] The beads were resuspended in 40 μL of selection buffer, heated at 70° C. for 30 min to elute the bound glycopeptides, chilled on ice for 5 min, and tumbled at room temperature for 10 min. The supernatant was removed, and the beads were washed with 40 μL of selection buffer and resuspended in 40 μL of selection buffer. The radioactivities of these solutions and suspensions were measured by liquid scintillation counting separately and the values were combined as apparent bound fractions. […] All experiments were done at least in triplicate. KDs were calculated as described in the footnote of Table 4 (below).

The Kd is the equilibrium constant for the complex coming apart. As for `CC[C@H](C)[C@H](NC(=O)[C@H](CCCNC(=N)N)NC(=O)[C@H](Cc1c[nH]cn1)NC(=O)[C@H](Cc1ccccc1)NC(=O)[C@H](CC(C)C)NC(=O)[C@H](C)NC(=O)[C@H](CC(C)C)NC(=O)[C@H](C)NC(=O)[C@H](Cc1ccc(O)cc1)NC(=O)[C@H](CCc1cn(C2CCC(OC3O[C@H](CO[C@H]4O[C@H](CO[C@H]5O[C@H](CO)[C@@H](O)[C@H](O)[C@@H]5O[C@H]5O[C@H](CO)[C@@H](O)[C@H](O)[C@@H]5O)[C@@H](O)[C@H](O[C@H]5O[C@H](CO)[C@@H](O)[C@H](O)[C@@H]5O[C@H]5O[C@H](CO)[C@@H](O)[C@H](O)[C@@H]5O)[C@@H]4O)[C@@H](O)[C@H](O[C@H]4O[C@H](CO)[C@@H](O)[C@H](O)[C@@H]4O[C@H]4O[C@H](CO)[C@@H](O)[C@H](O)[C@@H]4O[C@H]4O[C@H](CO)[C@@H](O)[C@H](O)[C@@H]4O)[C@@H]3O)CC2)nn1)NC(=O)[C@H](CC(=O)O)NC(=O)[C@@H](NC(=O)[C@@H](NC(=O)[C@H](CCC(N)=O)NC(=O)[C@H](CCc1cn(C2CCC(OC3O[C@H](CO[C@H]4O[C@H](CO[C@H]5O[C@H](CO)[C@@H](O)[C@H](O)[C@@H]5O[C@H]5O[C@H](CO)[C@@H](O)[C@H](O)[C@@H]5O)[C@@H](O)[C@H](O[C@H]5O[C@H](CO)[C@@H](O)[C@H](O)[C@@H]5O[C@H]5O[C@H](CO)[C@@H](O)[C@H](O)[C@@H]5O)[C@@H]4O)[C@@H](O)[C@H](O[C@H]4O[C@H](CO)[C@@H](O)[C@H](O)[C@@H]4O[C@H]4O[C@H](CO)[C@@H](O)[C@H](O)[C@@H]4O[C@H]4O[C@H](CO)[C@@H](O)[C@H](O)[C@@H]4O)[C@@H]3O)CC2)nn1)NC(=O)[C@H](CCCCN)NC(=O)[C@H](CC(C)C)NC(=O)[C@H](C)NC(=O)[C@H](C)NC(=O)[C@H](CCc1cn(C2CCC(OC3O[C@H](CO[C@H]4O[C@H](CO[C@H]5O[C@H](CO)[C@@H](O)[C@H](O)[C@@H]5O[C@H]5O[C@H](CO)[C@@H](O)[C@H](O)[C@@H]5O)[C@@H](O)[C@H](O[C@H]5O[C@H](CO)[C@@H](O)[C@H](O)[C@@H]5O[C@H]5O[C@H](CO)[C@@H](O)[C@H](O)[C@@H]5O)[C@@H]4O)[C@@H](O)[C@H](O[C@H]4O[C@H](CO)[C@@H](O)[C@H](O)[C@@H]4O[C@H]4O[C@H](CO)[C@@H](O)[C@H](O)[C@@H]4O[C@H]4O[C@H](CO)[C@@H](O)[C@H](O)[C@@H]4O)[C@@H]3O)CC2)nn1)NC(=O)[C@H](CCc1cn(C2CCC(OC3O[C@H](CO[C@H]4O[C@H](CO[C@H]5O[C@H](CO)[C@@H](O)[C@H](O)[C@@H]5O[C@H]5O[C@H](CO)[C@@H](O)[C@H](O)[C@@H]5O)[C@@H](O)[C@H](O[C@H]5O[C@H](CO)[C@@H](O)[C@H](O)[C@@H]5O[C@H]5O[C@H](CO)[C@@H](O)[C@H](O)[C@@H]5O)[C@@H]4O)[C@@H](O)[C@H](O[C@H]4O[C@H](CO)[C@@H](O)[C@H](O)[C@@H]4O[C@H]4O[C@H](CO)[C@@H](O)[C@H](O)[C@@H]4O[C@H]4O[C@H](CO)[C@@H](O)[C@H](O)[C@@H]4O)[C@@H]3O)CC2)nn1)NC=O)C(C)C)[C@@H](C)O)C(=O)N[C@@H](CC(C)C)C(=O)NCC(=O)N[C@@H](CO)C(=O)NCC(=O)N[C@@H](CO)C(=O)N[C@@H](CC(C)C)C(=O)NCC(=O)N[C@@H](Cc1c[nH]cn1)C(=O)N[C@@H](Cc1c[nH]cn1)C(=O)N[C@@H](Cc1c[nH]cn1)C(=O)N[C@@H](Cc1c[nH]cn1)C(=O)N[C@@H](Cc1c[nH]cn1)C(=O)N[C@@H](Cc1c[nH]cn1)C(=O)N[C@@H](CCCNC(=N)N)C(=O)N[C@@H](CC(=O)O)C(=O)N[C@@H](Cc1ccc(O)cc1)C(=O)N[C@@H](CCCCN)C(=O)N[C@@H](CC(=O)O)C(=O)N[C@@H](CC(=O)O)C(=O)N[C@@H](CC(=O)O)C(=O)N[C@@H](CC(=O)O)C(=O)N[C@@H](CCCCN)C(=O)O` (stereo partly drawn) [Clone 10F2-Δ11, XXAALKXQVTDXYALALFHRIL], the “Fmax [%]” value (Table 6 mutational analysis, radioactive bead binding assay) came out at 70%. For the same compound, the Kd (Table 6 mutational analysis, radioactive bead binding assay, ribosomally translated) was 0.89 nM. Further, under “truncated clones, Table 6”, the “binding to 2G12 after truncation (in words)” value is recorded as “tight binding”.

The values above are taken from US11345912B2, “Directed evolution of multivalent glycopeptides that tightly bind to target proteins” (Brandeis University, priority 2013, dated 2022).
